Experimental data reported in paper PMC12090182, “Repurposing of the RIPK1-Selective Benzo[1,4]oxazepin-4-one Scaffold for the Development of a Type III LIMK1/2 Inhibitor” (ACS Chemical Biology, 2025).
Like-named read-outs stand apart in the source and are kept apart here.

Experiments:
Assay in all cases: biochemical
Assay type in all cases: binding
[1] = biological target: 468 kinases including some pathogenic mutants (Homo sapiens, UniProt O00329); settings: PIK3CD (Entrez PIK3CD), 100 nM; read-out: Percent Control
468 kinases including some pathogenic mutants (Homo sapiens, UniProt O00329), sequence (O00329 whole entry, change not shown): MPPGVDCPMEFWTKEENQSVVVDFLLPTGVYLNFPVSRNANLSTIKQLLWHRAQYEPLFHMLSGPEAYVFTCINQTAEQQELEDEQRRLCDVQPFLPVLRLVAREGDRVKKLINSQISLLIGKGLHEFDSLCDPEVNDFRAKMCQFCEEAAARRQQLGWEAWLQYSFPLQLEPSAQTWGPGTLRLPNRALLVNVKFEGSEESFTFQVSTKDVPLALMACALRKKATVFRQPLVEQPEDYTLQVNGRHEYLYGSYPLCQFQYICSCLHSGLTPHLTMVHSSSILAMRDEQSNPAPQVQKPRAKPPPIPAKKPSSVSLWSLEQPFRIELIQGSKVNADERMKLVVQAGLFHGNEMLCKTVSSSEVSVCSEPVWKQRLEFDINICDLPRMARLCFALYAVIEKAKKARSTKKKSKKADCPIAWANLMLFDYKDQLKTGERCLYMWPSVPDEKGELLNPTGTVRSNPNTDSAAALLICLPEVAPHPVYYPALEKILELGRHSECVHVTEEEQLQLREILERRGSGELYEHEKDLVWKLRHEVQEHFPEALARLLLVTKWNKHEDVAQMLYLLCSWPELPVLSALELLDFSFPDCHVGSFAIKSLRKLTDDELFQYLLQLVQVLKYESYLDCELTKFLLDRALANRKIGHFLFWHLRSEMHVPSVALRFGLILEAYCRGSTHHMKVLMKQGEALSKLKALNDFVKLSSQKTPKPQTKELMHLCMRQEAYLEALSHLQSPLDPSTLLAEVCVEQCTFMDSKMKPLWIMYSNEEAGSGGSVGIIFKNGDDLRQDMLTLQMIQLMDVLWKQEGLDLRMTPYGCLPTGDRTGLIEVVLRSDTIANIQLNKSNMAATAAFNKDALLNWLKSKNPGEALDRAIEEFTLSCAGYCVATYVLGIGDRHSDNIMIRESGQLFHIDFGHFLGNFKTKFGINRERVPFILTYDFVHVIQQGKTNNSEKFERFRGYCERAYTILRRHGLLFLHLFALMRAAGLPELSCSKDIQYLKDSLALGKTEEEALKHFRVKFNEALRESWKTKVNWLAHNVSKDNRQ

[2] = biological target: 468 kinases including some pathogenic mutants (Homo sapiens, UniProt O75385); settings: ULK1 (Entrez ULK1), 1000 nM; read-out: Percent Control
[3] = biological target: 468 kinases including some pathogenic mutants (Homo sapiens, UniProt O75582); settings: 1000 nM, read-out: Percent Control
468 kinases including some pathogenic mutants (Homo sapiens, UniProt O75582), sequence (O75582 whole entry, stated change not applied): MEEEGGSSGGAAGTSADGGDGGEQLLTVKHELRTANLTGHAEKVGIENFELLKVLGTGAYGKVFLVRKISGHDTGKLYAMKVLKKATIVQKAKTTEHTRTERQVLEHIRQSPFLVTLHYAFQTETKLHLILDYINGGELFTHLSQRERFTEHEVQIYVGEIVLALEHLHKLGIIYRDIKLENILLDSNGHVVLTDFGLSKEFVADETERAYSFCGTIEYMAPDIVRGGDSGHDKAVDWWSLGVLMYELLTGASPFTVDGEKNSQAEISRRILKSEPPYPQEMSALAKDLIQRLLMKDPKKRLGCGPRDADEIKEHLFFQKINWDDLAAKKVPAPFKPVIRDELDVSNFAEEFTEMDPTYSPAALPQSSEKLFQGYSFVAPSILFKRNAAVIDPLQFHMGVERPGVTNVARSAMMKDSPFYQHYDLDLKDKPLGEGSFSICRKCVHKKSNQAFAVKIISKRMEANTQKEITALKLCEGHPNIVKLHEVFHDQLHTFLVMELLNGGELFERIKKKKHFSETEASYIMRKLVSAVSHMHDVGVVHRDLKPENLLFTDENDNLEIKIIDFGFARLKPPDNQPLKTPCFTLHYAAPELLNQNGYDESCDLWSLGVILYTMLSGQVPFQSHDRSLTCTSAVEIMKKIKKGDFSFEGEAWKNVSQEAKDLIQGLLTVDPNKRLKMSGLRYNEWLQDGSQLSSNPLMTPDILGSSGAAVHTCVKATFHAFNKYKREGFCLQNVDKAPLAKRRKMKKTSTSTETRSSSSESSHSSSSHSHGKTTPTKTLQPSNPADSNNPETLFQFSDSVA

[4] = biological target: 468 kinases including some pathogenic mutants (Homo sapiens, UniProt P10721, D816V); settings: read-out: Percent Control
[5] = biological target: 468 kinases including some pathogenic mutants (Homo sapiens, UniProt P10721, V559D); settings: read-out: Percent Control
[6] = biological target: 468 kinases including some pathogenic mutants (Homo sapiens, UniProt P17612); settings: PKAC-alpha (Entrez PRKACA), 1000 nM; read-out: Percent Control
[7] = biological target: 468 kinases including some pathogenic mutants (Homo sapiens, UniProt P41240); settings: CSK (Entrez CSK), 100 nM; read-out: Percent Control
468 kinases including some pathogenic mutants (Homo sapiens, UniProt P41240), sequence (P41240 whole entry, stated change not applied): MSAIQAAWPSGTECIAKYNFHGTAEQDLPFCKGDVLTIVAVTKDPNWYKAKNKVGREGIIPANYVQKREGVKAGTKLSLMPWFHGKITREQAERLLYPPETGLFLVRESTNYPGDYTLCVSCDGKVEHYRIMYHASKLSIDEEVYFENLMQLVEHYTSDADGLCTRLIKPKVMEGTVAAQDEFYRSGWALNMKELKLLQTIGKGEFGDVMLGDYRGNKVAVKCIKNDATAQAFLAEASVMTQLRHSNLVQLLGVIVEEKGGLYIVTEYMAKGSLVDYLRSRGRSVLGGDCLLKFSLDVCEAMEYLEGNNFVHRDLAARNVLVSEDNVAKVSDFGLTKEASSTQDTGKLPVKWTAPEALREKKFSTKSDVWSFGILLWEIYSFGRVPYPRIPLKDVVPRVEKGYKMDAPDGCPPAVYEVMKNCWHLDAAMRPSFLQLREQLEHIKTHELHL

[8] = biological target: 468 kinases including some pathogenic mutants (Homo sapiens, UniProt P42336, E545A); settings: read-out: Percent Control
[9] = biological target: 468 kinases including some pathogenic mutants (Homo sapiens, UniProt P42680); settings: TEC (Entrez TEC), 1000 nM; read-out: Percent Control
468 kinases including some pathogenic mutants (Homo sapiens, UniProt P42680), sequence (P42680 whole entry, change not shown): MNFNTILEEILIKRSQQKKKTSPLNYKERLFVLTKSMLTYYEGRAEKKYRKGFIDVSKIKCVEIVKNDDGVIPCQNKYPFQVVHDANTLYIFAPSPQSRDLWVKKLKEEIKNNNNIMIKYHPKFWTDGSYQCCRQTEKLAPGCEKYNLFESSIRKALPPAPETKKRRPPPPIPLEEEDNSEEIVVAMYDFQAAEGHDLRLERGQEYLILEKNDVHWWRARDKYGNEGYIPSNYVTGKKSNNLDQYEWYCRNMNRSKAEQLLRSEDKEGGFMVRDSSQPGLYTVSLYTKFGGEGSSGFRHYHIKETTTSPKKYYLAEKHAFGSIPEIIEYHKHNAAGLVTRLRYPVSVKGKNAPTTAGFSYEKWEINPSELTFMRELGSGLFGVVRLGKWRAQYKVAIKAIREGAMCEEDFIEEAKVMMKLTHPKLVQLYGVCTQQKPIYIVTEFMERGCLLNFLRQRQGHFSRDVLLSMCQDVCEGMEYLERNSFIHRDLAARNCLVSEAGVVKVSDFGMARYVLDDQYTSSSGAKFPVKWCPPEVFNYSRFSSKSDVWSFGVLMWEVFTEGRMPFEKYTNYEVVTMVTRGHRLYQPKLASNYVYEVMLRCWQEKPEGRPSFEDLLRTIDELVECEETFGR

[10] = biological target: 468 kinases including some pathogenic mutants (Homo sapiens, UniProt P48729); settings: CSNK1A1 (Entrez CSNK1A1), 100 nM; read-out: Percent Control
468 kinases including some pathogenic mutants (Homo sapiens, UniProt P48729), sequence (P48729 whole entry, change not shown): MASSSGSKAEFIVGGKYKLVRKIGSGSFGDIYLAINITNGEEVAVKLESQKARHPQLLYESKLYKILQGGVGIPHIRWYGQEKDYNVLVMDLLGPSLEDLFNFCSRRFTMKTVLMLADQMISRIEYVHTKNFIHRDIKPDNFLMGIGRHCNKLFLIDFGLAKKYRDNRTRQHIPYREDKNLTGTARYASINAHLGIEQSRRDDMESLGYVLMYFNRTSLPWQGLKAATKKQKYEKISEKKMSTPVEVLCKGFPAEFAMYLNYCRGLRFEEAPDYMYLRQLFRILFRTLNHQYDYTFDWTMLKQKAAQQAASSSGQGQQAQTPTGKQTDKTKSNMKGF

[11] = biological target: 468 kinases including some pathogenic mutants (Homo sapiens, UniProt P52564); settings: MEK6 (Entrez MAP2K6), 1000 nM; read-out: Percent Control
[12] = biological target: 468 kinases including some pathogenic mutants (Homo sapiens, UniProt Q00537); settings: PCTK2 (Entrez CDK17), 100 nM; read-out: Percent Control
[13] = biological target: 468 kinases including some pathogenic mutants (Homo sapiens, UniProt Q13153); settings: PAK1 (Entrez PAK1), 100 nM; read-out: Percent Control
[14] = biological target: 468 kinases including some pathogenic mutants (Homo sapiens, UniProt Q13976); settings: PRKG1 (Entrez PRKG1), 100 nM; read-out: Percent Control
[15] = biological target: 468 kinases including some pathogenic mutants (Homo sapiens, UniProt Q15418); settings: 1000 nM, read-out: Percent Control
468 kinases including some pathogenic mutants (Homo sapiens, UniProt Q15418), sequence (Q15418 whole entry, change not shown): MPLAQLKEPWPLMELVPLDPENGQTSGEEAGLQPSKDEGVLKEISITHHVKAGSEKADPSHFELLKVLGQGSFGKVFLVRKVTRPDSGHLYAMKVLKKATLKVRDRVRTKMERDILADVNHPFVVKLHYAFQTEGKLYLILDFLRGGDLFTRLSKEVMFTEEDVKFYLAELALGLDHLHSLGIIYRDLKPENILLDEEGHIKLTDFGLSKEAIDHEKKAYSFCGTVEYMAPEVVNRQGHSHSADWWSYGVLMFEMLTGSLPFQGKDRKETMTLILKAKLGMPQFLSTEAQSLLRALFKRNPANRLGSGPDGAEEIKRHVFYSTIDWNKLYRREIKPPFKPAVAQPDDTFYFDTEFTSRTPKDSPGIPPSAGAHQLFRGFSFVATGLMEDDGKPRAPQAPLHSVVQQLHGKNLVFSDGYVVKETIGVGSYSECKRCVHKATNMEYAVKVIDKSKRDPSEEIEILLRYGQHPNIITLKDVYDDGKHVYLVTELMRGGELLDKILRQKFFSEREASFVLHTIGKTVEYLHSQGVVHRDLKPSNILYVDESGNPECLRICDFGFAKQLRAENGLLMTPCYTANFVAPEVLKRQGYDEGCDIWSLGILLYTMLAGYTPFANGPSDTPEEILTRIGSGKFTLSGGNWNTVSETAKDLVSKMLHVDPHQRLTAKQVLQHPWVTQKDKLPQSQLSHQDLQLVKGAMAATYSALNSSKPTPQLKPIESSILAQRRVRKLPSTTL

[16] = biological target: 468 kinases including some pathogenic mutants (Homo sapiens, UniProt Q15746); settings: MYLK (Entrez MYLK), 100 nM; read-out: Percent Control
[17] = biological target: 468 kinases including some pathogenic mutants (Homo sapiens, UniProt Q16584); settings: MLK3 (Entrez MAP3K11), 100 nM; read-out: Percent Control
[18] = biological target: 468 kinases including some pathogenic mutants (Homo sapiens, UniProt Q8N5S9); settings: CAMKK1 (Entrez CAMKK1), 100 nM; read-out: Percent Control
[19] = biological target: 468 kinases including some pathogenic mutants (Homo sapiens, UniProt Q8WTQ7); settings: GRK7 (Entrez GRK7), 100 nM; read-out: Percent Control
[20] = biological target: 468 kinases including some pathogenic mutants (Homo sapiens, UniProt Q96Q40); settings: PFTAIRE2 (Entrez CDK15), 100 nM; read-out: Percent Control
468 kinases including some pathogenic mutants (Homo sapiens, UniProt Q96Q40), sequence (Q96Q40 whole entry, change not shown): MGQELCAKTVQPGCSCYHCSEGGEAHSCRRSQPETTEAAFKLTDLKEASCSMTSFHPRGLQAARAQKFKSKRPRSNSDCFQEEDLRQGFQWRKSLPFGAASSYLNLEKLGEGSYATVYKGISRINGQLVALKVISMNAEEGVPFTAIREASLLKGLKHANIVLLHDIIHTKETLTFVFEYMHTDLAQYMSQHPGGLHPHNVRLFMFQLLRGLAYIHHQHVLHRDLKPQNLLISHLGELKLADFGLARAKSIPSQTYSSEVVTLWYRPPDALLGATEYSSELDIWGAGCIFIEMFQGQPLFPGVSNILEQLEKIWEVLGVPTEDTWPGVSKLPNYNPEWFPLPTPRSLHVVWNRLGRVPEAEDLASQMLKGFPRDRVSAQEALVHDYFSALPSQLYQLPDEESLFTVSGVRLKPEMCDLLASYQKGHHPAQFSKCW

[21] = biological target: 468 kinases including some pathogenic mutants (Homo sapiens, UniProt Q9HBY8); settings: SGK2 (Entrez SGK2), 100 nM; read-out: Percent Control
[22] = biological target: 468 kinases including some pathogenic mutants (Homo sapiens, UniProt Q9NRP7); settings: STK36 (Entrez STK36), 100 nM; read-out: Percent Control
[23] = biological target: 468 kinases including some pathogenic mutants (Homo sapiens, UniProt Q9NY57); settings: YANK2 (Entrez STK32B), 1000 nM; read-out: Percent Control
[24] = biological target: 468 kinases including some pathogenic mutants (Homo sapiens, UniProt Q9P286); settings: PAK7 (Entrez PAK7), 100 nM; read-out: Percent Control
[25] = biological target: 468 kinases including some pathogenic mutants (Homo sapiens, UniProt Q9UKI8); settings: TLK1 (Entrez TLK1), 1000 nM; read-out: Percent Control
[26] = biological target: 468 kinases including some pathogenic mutants (Homo sapiens, UniProt Q9UPE1); settings: SRPK3 (Entrez SRPK3), 1000 nM; read-out: Percent Control
468 kinases including some pathogenic mutants (Homo sapiens, UniProt Q9UPE1), sequence (Q9UPE1 whole entry, change not shown): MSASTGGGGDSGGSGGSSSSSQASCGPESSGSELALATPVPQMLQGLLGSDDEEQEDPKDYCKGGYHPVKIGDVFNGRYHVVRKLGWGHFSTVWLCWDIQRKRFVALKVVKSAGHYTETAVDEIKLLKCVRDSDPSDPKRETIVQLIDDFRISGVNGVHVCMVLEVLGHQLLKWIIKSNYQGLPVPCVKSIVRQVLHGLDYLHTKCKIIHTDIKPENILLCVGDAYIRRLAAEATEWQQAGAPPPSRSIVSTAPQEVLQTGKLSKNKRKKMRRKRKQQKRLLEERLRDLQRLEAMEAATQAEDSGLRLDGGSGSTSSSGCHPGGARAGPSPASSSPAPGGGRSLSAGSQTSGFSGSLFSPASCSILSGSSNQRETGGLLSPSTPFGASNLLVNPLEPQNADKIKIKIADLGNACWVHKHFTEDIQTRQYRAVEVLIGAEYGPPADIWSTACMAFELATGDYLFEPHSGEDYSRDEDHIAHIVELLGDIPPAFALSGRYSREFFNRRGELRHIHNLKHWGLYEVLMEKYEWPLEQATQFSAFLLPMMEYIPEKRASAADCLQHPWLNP

[27] = biological target: 468 kinases including some pathogenic mutants (Homo sapiens, UniProt Q9Y2H1); settings: NDR2 (Entrez STK38L), 100 nM; read-out: Percent Control
[28] = biological target: 468 kinases including some pathogenic mutants (Homo sapiens, UniProt Q9Y6R4); settings: MAP3K4 (Entrez MAP3K4), 100 nM; read-out: Percent Control

`CN1C(=O)[C@@H](N2CCc3c(nn(Cc4ccccc4)c3C(N)=O)C2=O)COc2cc(Cl)ccc21` [Compound 10, (S)-2-benzyl-6-(8-chloro-5-methyl-4-oxo-2,3,4,5-tetrahydrobenzo[b][1,4]oxazepin-3-yl)-7-oxo-4,5,6,7-tetrahydro-2H-pyrazolo[3,4-c]pyridine-3-carboxamide] was tested, and the remaining activity at 0.1 µM [1] was 60%, the remaining activity at 1 µM [2] was 100% and the remaining activity at 1 µM ([3]; RPS6KA5(Kin.Dom.1-N-terminal) (Entrez RPS6KA5)) was 100%. The remaining activity at 1 µM ([3]; RPS6KA5(Kin.Dom.2-C-terminal) (Entrez RPS6KA5)) was 100%, the remaining activity at 1 µM [4] was 100% and the remaining activity at 0.1 µM [5] was 69%. The remaining activity at 1 µM [6] was 100%, the remaining activity at 0.1 µM [7] was 83% and the remaining activity at 1 µM [8] was 100%. It also gave a remaining activity at 1 µM [9] of 100%, a remaining activity at 0.1 µM [10] of 73% and a remaining activity at 1 µM [11] of 100%. For the same molecule, the remaining activity at 0.1 µM [12] was 83%, the remaining activity at 0.1 µM [13] was 88% and the remaining activity at 0.1 µM [14] was 78%. The remaining activity at 1 µM ([15]; RSK1(Kin.Dom.1-N-terminal) (Entrez RPS6KA1)) was 100%, the remaining activity at 1 µM ([15]; RSK1(Kin.Dom.2-C-terminal) (Entrez RPS6KA1)) was 100% and the remaining activity at 0.1 µM [16] was 89%. The remaining activity at 0.1 µM [17] was 100%, the remaining activity at 0.1 µM [18] was 70% and the remaining activity at 0.1 µM [19] was 77%. For the same molecule, the remaining activity at 0.1 µM [20] was 82%, the remaining activity at 0.1 µM [21] was 75% and the remaining activity at 0.1 µM [22] was 100%. It also gave a remaining activity at 1 µM [23] of 100%, a remaining activity at 0.1 µM [24] of 80% and a remaining activity at 1 µM [25] of 100%. It also gave a remaining activity at 1 µM [26] of 100%, a remaining activity at 0.1 µM [27] of 71% and a remaining activity at 0.1 µM [28] of 79%.
